In ChEMBL document CHEMBL1649335, “Discovery of {1-[4-(2-{hexahydropyrrolo[3,4-c]pyrrol-2(1H)-yl}-1H-benzimidazol-1-yl)piperidin-1-yl]cyclooctyl}methanol, systemically potent novel non-peptide agonist of nociceptin/orphanin FQ receptor as analgesic for the treatment of neuropathic pain: design, synthesis, and structure-activity …” (Bioorg Med Chem, 2010):
Active and inactive are the calls of the source.

Key:
[1] = Drug level Sprague-Dawley rat brain at 10 mg/kg, sc after […]; assay type: ADME, organism-based; set-up: dose 10 mg/kg, route subcutaneous; details: read-out: Drug uptake
[2] = Drug level Sprague-Dawley rat cerebrospinal fluid at 10 mg/kg, sc after 0.5 hrs; assay type: ADME, organism-based; set-up: dose 10 mg/kg, route subcutaneous; details: read-out: Drug uptake
[3] = Drug level Sprague-Dawley rat spinal cord at 10 mg/kg, sc after […]; assay type: ADME, organism-based; set-up: dose 10 mg/kg, route subcutaneous; details: read-out: Drug uptake
Rattus norvegicus [4] = experiment: Antiallodynic activity against von Frey hair mechanically stimulated neuropathic pain in intrathecally dosed Sprague-Dawley rat assessed as increase of response threshold per site after 20 mins; assay type: functional
Rattus norvegicus [5] = experiment: Antiallodynic activity against von Frey hair mechanically stimulated neuropathic pain in intrathecally dosed Sprague-Dawley rat assessed as assessed as minimum effective dose to increase of response threshold per site after 20 mins; assay type: functional
Rattus norvegicus [6] = experiment: Antiallodynic activity against von Frey hair mechanically stimulated neuropathic pain in intrathecally dosed Sprague-Dawley rat assessed as assessed as minimum effective dose to increase of response threshold per site after 1 hr; assay type: functional
Rattus norvegicus [7] = experiment: Antiallodynic activity against von Frey hair mechanically stimulated neuropathic pain in sc dosed Sprague-Dawley rat assessed as increase of response threshold; assay type: functional, organism-based
Rattus norvegicus [8] = experiment: Antiallodynic activity against von Frey hair mechanically stimulated neuropathic pain in Sprague-Dawley rat assessed as increase of response threshold at 10 mg/kg, sc after 1 hr relative to control; assay type: functional; details: route subcutaneous
Rattus norvegicus [9] = experiment: Antiallodynic activity against von Frey hair mechanically stimulated neuropathic pain in Sprague-Dawley rat assessed as increase of response threshold at 1 to 30 mg/kg, sc; assay type: functional, organism-based; details: TDE = time-dependent effect
Rattus norvegicus [10] = experiment: Antiallodynic activity against von Frey hair mechanically stimulated neuropathic pain in Sprague-Dawley rat assessed as increase of response threshold at 30 mg/kg, sc after 2 hrs relative to control; assay type: functional; details: route subcutaneous
Rattus norvegicus [11] = experiment: Antiallodynic activity against von Frey hair mechanically stimulated neuropathic pain in Sprague-Dawley rat assessed as effect on allodynia in contralateral paw at 1 to 30 mg/kg, sc after 1 hr; assay type: functional, organism-based
Rattus norvegicus [12] = experiment: Antiallodynic activity against von Frey hair mechanically stimulated neuropathic pain in Sprague-Dawley rat assessed as effect on allodynia in contralateral paw at 1 to 30 mg/kg, sc after 2 hrs; assay type: functional, organism-based
Rattus norvegicus [13] = experiment: Antiallodynic activity against von Frey hair mechanically stimulated neuropathic pain in Sprague-Dawley rat assessed as effect on allodynia in contralateral paw at 5.5 to 170 nmol/site administered intrathecally after 20 mins; assay type: functional, organism-based
Rattus norvegicus [14] = experiment: Antiallodynic activity against von Frey hair mechanically stimulated neuropathic pain in Sprague-Dawley rat assessed as effect on allodynia in contralateral paw at 5.5 to 170 nmol/site administered intrathecally after 1 hr; assay type: functional, organism-based
Rattus norvegicus [15] = experiment: Antiallodynic activity against von Frey hair mechanically stimulated neuropathic pain in Sprague-Dawley rat assessed as effect on allodynia in contralateral paw at 5.5 to 170 nmol/site, icv after 20 mins; assay type: functional, organism-based
[16] = biological target: Adenosine receptor A1 (Homo sapiens) (UniProt P30542); experiment: Inhibition of human adenosine A1 receptor at 1 uM relative to control
Rattus norvegicus [17] = experiment: Antiallodynic activity against von Frey hair mechanically stimulated neuropathic pain in Sprague-Dawley rat assessed as increase of response threshold per site at 170 nmol/site administered intrathecally after 20 mins relative to control; assay type: functional
Rattus norvegicus [18] = experiment: Toxicity in von Frey hair mechanically stimulated neuropathic pain Sprague-Dawley rat model assessed as respiratory depression at up to 30 mg/kg, sc; assay type: organism-based; set-up: dose 30 mg/kg, route subcutaneous; details: in vivo
Rattus norvegicus [19] = experiment: Toxicity in von Frey hair mechanically stimulated neuropathic pain Sprague-Dawley rat model assessed as sedation effect at up to 30 mg/kg, sc; assay type: organism-based; set-up: dose 30 mg/kg, route subcutaneous; details: in vivo
Rattus norvegicus [20] = experiment: Toxicity in von Frey hair mechanically stimulated neuropathic pain Sprague-Dawley rat model assessed as respiratory depression at up to 170 nmol/site, administered intrathecally; assay type: organism-based; details: in vivo, icv_or_intrathecal
Rattus norvegicus [21] = experiment: Toxicity in von Frey hair mechanically stimulated neuropathic pain Sprague-Dawley rat model assessed as respiratory depression at up to 170 nmol/site, icv; assay type: organism-based; details: in vivo, icv_or_intrathecal
[22] = biological target: Type-2 angiotensin II receptor (Homo sapiens) (UniProt P50052); experiment: Inhibition of human angiotensin 2 AT2 receptor at 1 uM relative to control
[23] = biological target: D(2) dopamine receptor (Homo sapiens) (UniProt P14416); experiment: Inhibition of human dopamine D2 receptor at 1 uM relative to control
Chain of D(2) dopamine receptor (Homo sapiens) (P14416 whole entry): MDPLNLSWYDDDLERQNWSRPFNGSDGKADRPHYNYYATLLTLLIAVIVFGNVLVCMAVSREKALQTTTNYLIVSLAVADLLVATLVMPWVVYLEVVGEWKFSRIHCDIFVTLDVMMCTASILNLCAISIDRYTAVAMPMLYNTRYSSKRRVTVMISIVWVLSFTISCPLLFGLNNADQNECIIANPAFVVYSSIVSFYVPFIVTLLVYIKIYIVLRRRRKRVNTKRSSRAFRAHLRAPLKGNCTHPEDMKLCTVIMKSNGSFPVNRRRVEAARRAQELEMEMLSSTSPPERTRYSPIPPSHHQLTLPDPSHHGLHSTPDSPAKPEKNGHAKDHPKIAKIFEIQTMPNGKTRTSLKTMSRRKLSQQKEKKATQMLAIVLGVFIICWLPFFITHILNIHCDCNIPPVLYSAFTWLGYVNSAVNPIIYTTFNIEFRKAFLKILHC

Rattus norvegicus [24] = species: Rattus norvegicus; experiment: Inhibition of rat AMPA receptor at 1 uM relative to control
[25] = biological target: Glutamate NMDA receptor (Rattus norvegicus) (UniProt P35439+Q00959+Q00960+Q00961+Q62645+Q8VHN2+Q9R1M7); experiment: Inhibition of rat NMDA receptor at 1 uM relative to control; assay type: protein-complex assay
Rattus norvegicus [26] = species: Rattus norvegicus; experiment: Inhibition of rat glutamate receptor at 1 uM relative to control
[27] = biological target: Histamine H2 receptor (Cavia porcellus) (UniProt P47747); experiment: Inhibition of guinea pig histamine H2 receptor at 1 uM relative to control
Chain of Histamine H2 receptor (Cavia porcellus) (P47747 whole entry): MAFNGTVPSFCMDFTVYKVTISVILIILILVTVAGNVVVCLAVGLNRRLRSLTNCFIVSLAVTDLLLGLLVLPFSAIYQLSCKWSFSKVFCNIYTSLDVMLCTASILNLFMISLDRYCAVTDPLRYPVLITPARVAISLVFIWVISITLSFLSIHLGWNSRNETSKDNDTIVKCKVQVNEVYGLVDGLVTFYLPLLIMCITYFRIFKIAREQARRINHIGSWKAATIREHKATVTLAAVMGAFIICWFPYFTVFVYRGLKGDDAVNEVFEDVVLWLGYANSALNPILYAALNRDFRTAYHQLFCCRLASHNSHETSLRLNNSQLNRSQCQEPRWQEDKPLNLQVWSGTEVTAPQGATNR

[28] = biological target: Cysteinyl leukotriene receptor 1 (Homo sapiens) (UniProt Q9Y271); experiment: Inhibition of human leukotriene D4 receptor at 1 uM relative to control
[29] = biological target: Muscarinic acetylcholine receptor (Rattus norvegicus) (UniProt P08482+P08483+P08485+P08911+P10980); experiment: Inhibition of rat muscarinic M receptor at 1 uM relative to control
[30] = biological target: Muscarinic acetylcholine receptor M1 (Homo sapiens) (UniProt P11229); experiment: Inhibition of human muscarinic M1 receptor at 1 uM relative to control
Chain of Muscarinic acetylcholine receptor M1 (Homo sapiens) (P11229 whole entry): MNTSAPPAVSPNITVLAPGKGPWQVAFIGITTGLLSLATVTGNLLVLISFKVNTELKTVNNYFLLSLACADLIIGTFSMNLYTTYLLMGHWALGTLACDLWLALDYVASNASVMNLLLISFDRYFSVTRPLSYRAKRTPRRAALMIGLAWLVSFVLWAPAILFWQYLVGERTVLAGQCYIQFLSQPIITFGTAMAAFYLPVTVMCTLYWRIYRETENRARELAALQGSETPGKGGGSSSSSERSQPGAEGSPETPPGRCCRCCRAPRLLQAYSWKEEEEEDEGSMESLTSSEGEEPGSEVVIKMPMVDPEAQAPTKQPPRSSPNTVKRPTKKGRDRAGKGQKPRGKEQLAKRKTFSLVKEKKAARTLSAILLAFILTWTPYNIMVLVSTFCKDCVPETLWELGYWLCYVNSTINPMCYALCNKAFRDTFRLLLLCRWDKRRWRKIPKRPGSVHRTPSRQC

[31] = biological target: Muscarinic acetylcholine receptor M3 (Homo sapiens) (UniProt P20309); experiment: Inhibition of human muscarinic M3 receptor at 1 uM relative to control
Chain of Muscarinic acetylcholine receptor M3 (Homo sapiens) (P20309 whole entry, looked up): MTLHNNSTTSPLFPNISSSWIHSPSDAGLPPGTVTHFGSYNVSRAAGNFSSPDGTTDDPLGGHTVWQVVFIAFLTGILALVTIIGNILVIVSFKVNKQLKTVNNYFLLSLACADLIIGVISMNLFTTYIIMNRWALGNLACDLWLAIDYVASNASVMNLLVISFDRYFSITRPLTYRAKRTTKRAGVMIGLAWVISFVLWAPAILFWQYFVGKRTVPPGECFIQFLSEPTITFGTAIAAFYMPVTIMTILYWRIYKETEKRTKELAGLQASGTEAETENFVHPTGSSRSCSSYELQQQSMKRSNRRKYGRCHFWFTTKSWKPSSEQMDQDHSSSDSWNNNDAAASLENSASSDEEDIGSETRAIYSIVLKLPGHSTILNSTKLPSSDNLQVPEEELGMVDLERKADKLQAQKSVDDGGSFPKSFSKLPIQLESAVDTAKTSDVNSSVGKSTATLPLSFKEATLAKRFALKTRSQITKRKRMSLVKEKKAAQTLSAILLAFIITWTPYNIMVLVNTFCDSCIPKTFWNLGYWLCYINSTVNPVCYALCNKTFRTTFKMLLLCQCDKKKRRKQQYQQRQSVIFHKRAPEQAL

Rattus norvegicus [32] = species: Rattus norvegicus; experiment: Inhibition of rat neuronal-type nicotinic acetylcholine receptor at 1 uM relative to control
[33] = biological target: Substance-K receptor (Homo sapiens) (UniProt P21452); experiment: Inhibition of human tachykinin NK2 receptor at 1 uM relative to control
Chain of Substance-K receptor (Homo sapiens) (P21452 whole entry): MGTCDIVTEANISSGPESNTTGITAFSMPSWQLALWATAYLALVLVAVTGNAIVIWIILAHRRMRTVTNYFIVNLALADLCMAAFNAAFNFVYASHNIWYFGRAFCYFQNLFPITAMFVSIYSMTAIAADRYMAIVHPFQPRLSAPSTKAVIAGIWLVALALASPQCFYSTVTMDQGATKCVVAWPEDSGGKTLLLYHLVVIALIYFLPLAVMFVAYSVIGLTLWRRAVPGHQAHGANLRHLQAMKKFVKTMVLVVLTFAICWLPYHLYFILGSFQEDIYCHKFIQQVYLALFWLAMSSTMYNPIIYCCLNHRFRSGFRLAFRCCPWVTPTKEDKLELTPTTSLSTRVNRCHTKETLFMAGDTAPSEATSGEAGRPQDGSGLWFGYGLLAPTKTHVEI

[34] = biological target: Sodium-dependent serotonin transporter (Homo sapiens) (UniProt P31645); experiment: Inhibition of human 5-HT transporter at 1 uM relative to control
Chain of Sodium-dependent serotonin transporter (Homo sapiens) (P31645 whole entry, looked up): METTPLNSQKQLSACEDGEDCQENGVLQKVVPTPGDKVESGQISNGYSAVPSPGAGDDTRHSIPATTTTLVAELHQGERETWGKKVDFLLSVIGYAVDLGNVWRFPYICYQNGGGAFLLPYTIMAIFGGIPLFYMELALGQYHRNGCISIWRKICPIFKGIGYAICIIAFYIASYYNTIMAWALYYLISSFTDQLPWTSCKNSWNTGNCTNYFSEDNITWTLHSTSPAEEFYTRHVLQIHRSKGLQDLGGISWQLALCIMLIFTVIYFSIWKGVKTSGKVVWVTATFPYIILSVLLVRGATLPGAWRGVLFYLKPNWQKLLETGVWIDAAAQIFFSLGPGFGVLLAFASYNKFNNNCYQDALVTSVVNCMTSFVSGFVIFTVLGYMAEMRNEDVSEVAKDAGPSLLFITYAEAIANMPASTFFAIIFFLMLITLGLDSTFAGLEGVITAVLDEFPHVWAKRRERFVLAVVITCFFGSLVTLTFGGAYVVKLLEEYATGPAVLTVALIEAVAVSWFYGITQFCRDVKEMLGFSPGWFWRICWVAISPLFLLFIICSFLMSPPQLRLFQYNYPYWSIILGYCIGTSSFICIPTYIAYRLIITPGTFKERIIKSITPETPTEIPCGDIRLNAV

[35] = biological target: Glucocorticoid receptor (Homo sapiens) (UniProt P04150); experiment: Inhibition of human glucocorticoid receptor at 1 uM relative to control
Chain of Glucocorticoid receptor (Homo sapiens) (P04150 whole entry): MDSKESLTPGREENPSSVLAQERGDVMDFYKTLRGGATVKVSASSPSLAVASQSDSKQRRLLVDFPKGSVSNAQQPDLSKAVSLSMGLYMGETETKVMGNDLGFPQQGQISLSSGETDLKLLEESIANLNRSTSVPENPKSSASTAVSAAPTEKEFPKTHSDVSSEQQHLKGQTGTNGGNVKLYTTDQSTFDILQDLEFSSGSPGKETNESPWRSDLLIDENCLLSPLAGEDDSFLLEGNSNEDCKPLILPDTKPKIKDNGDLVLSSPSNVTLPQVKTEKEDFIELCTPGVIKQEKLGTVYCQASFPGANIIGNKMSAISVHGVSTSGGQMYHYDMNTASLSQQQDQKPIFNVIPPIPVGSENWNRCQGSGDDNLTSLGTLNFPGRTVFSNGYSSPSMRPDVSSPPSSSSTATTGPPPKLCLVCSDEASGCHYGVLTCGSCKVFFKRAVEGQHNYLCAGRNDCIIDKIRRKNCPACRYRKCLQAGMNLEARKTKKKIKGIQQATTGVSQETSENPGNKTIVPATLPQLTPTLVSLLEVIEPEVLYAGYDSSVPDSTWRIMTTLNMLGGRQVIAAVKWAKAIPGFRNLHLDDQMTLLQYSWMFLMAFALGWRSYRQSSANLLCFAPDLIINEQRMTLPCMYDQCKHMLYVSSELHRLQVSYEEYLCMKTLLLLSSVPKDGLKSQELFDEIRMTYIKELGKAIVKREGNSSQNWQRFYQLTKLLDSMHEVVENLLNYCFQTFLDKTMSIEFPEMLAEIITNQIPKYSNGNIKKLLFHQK

[36] = biological target: L-type calcium channel, dihydropyridine site (Rattus norvegicus, UniProt P22002+P27732+Q02485); experiment: Inhibition of rat L-type calcium channel dihydropyridine site at 1 uM relative to control
Rattus norvegicus [37] = species: Rattus norvegicus; experiment: Inhibition of rat N-type calcium channel at 1 uM relative to control
Rattus norvegicus [38] = species: Rattus norvegicus; experiment: Inhibition of rat sodium channel site 2 at 1 uM relative to control
Rattus norvegicus [39] = species: Rattus norvegicus; experiment: Inhibition of rat chloride channel at 1 uM relative to control
monoamine oxidase A = monoamine oxidase A (Homo sapiens, UniProt P21397); experiment: Inhibition of human monoamine oxidase A at 1 uM relative to control
Chain of monoamine oxidase A (P21397 whole entry): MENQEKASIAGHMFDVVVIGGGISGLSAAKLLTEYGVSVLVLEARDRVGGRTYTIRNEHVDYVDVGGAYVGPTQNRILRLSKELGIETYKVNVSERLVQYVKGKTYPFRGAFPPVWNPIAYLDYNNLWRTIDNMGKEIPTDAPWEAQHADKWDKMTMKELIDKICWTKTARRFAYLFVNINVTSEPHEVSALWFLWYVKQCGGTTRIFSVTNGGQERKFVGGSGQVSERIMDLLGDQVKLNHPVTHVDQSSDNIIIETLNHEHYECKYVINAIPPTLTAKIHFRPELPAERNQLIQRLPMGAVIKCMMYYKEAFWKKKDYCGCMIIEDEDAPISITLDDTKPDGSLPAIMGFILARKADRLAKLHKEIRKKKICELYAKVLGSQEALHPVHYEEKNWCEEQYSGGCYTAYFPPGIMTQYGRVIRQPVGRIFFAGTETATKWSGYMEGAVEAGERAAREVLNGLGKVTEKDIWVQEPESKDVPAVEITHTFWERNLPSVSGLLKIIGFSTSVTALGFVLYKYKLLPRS

Rattus norvegicus [40] = species: Rattus norvegicus; experiment: Stimulation of rat guanylate cyclase at 1 uM relative to basal activity
Mu-type opioid receptor = Mu-type opioid receptor (Homo sapiens, UniProt P35372)
Chain of Mu-type opioid receptor (P35372 whole entry): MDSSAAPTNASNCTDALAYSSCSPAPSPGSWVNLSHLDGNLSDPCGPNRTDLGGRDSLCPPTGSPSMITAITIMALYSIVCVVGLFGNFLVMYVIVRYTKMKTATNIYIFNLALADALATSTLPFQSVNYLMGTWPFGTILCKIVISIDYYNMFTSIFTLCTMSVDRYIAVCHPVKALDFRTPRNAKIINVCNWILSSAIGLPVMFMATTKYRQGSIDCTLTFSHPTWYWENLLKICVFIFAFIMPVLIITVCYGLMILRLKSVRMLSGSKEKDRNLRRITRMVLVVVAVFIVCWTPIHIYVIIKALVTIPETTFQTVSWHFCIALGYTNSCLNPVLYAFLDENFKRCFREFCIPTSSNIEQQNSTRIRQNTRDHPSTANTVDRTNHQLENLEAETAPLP

Nociceptin receptor = Nociceptin receptor (Homo sapiens, UniProt P41146); experiment: biochemical
Chain of Nociceptin receptor (P41146 whole entry): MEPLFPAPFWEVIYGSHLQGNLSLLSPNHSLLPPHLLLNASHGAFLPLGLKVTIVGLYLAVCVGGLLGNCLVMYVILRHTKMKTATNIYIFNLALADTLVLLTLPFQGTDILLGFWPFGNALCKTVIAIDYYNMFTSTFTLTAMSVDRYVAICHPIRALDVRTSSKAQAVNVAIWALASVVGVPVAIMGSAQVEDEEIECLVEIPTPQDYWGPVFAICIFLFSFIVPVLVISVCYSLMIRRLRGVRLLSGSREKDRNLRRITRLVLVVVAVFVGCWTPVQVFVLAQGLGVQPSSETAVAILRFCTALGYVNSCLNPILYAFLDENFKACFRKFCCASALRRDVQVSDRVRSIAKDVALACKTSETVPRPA

For `OCC1(N2CCC(n3c(N4CC5CNCC5C4)nc4ccccc43)CC2)CCCCCCC1` (centres undefined), the concentration at […] [1] was 226 ng/mL, the concentration at 0.5 h [2] was 11 ng/mL and the concentration at […] [3] was 63 ng/mL. The Activity (Rattus norvegicus [4]) was “Dose-dependent effect”, the ED50 (Rattus norvegicus [4]) was 80 nmol and the MED (Rattus norvegicus [5]) was 55 nmol. For the same molecule, the MED (Rattus norvegicus [6]) was 55 nmol, the Activity (Rattus norvegicus [7]) was “Dose-dependent effect” and the Activity (Rattus norvegicus [8]) was 37.6%. For the same molecule, the Activity (Rattus norvegicus [9]) was “tde”, the Activity (Rattus norvegicus [10]) was 35.8% and the Activity (Rattus norvegicus [11]) was “inactive”. For the same molecule, the Activity (Rattus norvegicus [12]) was “inactive”, the Activity (Rattus norvegicus [13]) was “inactive” and the Activity (Rattus norvegicus [14]) was “inactive”. For the same molecule, the Activity (Rattus norvegicus [15]) was “inactive”, the inhibition [16] was < 10% and the Activity (Rattus norvegicus [17]) was 59.3%. The Activity (Rattus norvegicus [18]) was “Non-toxic”, the Activity (Rattus norvegicus [19]) was “Non-toxic” and the Activity (Rattus norvegicus [20]) was “Non-toxic”. The Activity (Rattus norvegicus [21]) was “Non-toxic”, the inhibition [22] was < 10% and the inhibition [23] was < 10%. For the same molecule, the inhibition (Rattus norvegicus [24]) was < 10%, the inhibition [25] was < 10% and the inhibition (Rattus norvegicus [26]) was < 10%. For the same molecule, the inhibition [27] was 22%, the inhibition [28] was < 10% and the inhibition [29] was 38%. The inhibition [30] was 15%, the inhibition [31] was < 10% and the inhibition (Rattus norvegicus [32]) was < 10%. The inhibition [33] was < 10%, the inhibition [34] was < 10% and the inhibition [35] was < 10%. For the same molecule, the inhibition at 1 µM [36] was < 10%, the inhibition (Rattus norvegicus [37]) was < 10% and the inhibition (Rattus norvegicus [38]) was < 10%. The inhibition (Rattus norvegicus [39]) was < 10%, the inhibition at 1 µM (monoamine oxidase A) was 12% and the inhibition (Rattus norvegicus [40]) was < 10%. For the same molecule, the EC50 (Mu-type opioid receptor) was 3500 nM and the Ki (Nociceptin receptor) was 1.44 nM.
